Experimental data taken from US9862730B2, “Imidazothiadiazole derivatives as protease activated receptor 4 (PAR4) inhibitors for treating platelet aggregation” (BRISTOL-MYERS SQUIBB COMPANY, priority 2012, dated 2018).

Biological target: PAR4 (Homo sapiens (Human), UniProt Q96RI0)
Experiment: FLIPR assay in PAR4-expressing HEK293 cells (PAR4 antagonist activity, calcium mobilization)
Type: cell-based
Details: FLIPR assay as described in Example A
From the text: The FLIPR assay is an exemplary in vitro assay for measuring the activity of the PAR4 antagonists of the present invention. In this assay, intracellular calcium mobilization is induced in PAR4 expressing cells by a PAR4 agonist and calcium mobilization is monitored. See, e.g., Example A.
HEK293 cells stably expressing PAR4 were generated by a standard method of transfection of human […] cDNA expression vector or by RAGE technology from Athersys Inc. (Cleveland, Ohio) and selected based on PAR4 protein expression of mRNA expression. […] These cells express endogenous PAR1 and can elicit calcium signal upon stimulation with PAR1 agonist peptide.
Counter screens for agonist activity and PAR1 antagonist activity were also performed. Briefly, HEK293 EBNA PAR4 clone 20664.1J cells were plated 24 hrs. prior to experiment in 384 well, Poly-D-Lysine coated, black, clear bottom plates (Greiner Bio-One, Monroe, N.C.). Cells were plated at 20,000 cells/well in 20 μl growth medium and incubated at 37° C. with 5% CO2 overnight. At time of assay, media was replaced with 40 μl 1× Hank's Buffered Saline Solution (HBSS) (with 10 mM HEPES) and 20 μl test compound also diluted in 1×HBSS buffer was added at various concentrations and 0.67% DMSO final concentration on the FDSS for agonist measurement. The cells were then incubated for 30 minutes at room temperature followed by addition of 20 μl of agonist peptide for antagonist measurement on the FDSS.
As indicated above, the FLIPR assay, an in vitro assay, measures the PAR4 antagonist activity of compounds tested as described in Example A.

Chain of PAR4 (Q96RI0 18-385): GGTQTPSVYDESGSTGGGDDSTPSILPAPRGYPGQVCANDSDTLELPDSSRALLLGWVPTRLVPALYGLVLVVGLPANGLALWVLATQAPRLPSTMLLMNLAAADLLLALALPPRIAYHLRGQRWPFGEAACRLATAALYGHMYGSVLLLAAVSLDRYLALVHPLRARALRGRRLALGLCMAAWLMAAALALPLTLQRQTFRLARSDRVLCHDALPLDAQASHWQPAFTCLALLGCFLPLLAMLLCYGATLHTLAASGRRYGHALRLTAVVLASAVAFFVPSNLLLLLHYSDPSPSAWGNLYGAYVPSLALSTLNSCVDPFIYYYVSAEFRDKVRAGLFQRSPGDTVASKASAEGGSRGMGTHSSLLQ

COc1ccc2cc(-c3cn4nc(SC)sc4n3)oc2c1 [Example 20]
IC50: 3.53 nM

COc1nn2cc(-c3nc4ccccc4o3)nc2s1 [Example 111, 2-(2-Methoxyimidazo[2,1-b][1,3,4]thiadiazol-6-yl)benzo[d]oxazole]
IC50: 140 nM

Cc1nn2cc(-c3cc4ccccc4o3)nc2s1 [Example 41]
IC50: 18.6 nM

Clc1nccc2oc(-c3cn4nc(Br)sc4n3)cc12 [Example 222, 2-(2-Bromoimidazo[2,1-b][1,3,4]thiadiazol-6-yl)-4-chlorofuro[3,2-c]pyridine]
IC50: 464 nM

COc1cc(OCc2cccc(OCc3cncnc3)c2)c2cc(-c3cn4nc(OC)sc4n3)oc2c1 [Example 329]
IC50: 71.6 nM

CSc1nn2cc(-c3cc4ccc(C)cc4o3)nc2s1 [Example 21]
IC50: 22.1 nM

COc1cc(OCc2cccc(OCc3cc(C(F)(F)F)ccc3C)c2)c2cc(-c3cn4nc(OC)sc4n3)oc2c1 [Example 396]
IC50: 4.51 nM

CSc1nn2cc(-c3nc4c(C)cc(Cl)cc4s3)nc2s1 [Example 192]
IC50: 990 nM

Cc1cccc2oc(-c3cn4nc(C(C)(F)F)sc4n3)nc12 [Example 122, 2-(2-(1,1-Difluoroethyl)imidazo[2,1-b][1,3,4]thiadiazol-6-yl)-4-methylbenzo[d]oxazole]
IC50: 509 nM

CSc1nn2cc(-c3cc4ccccc4o3)nc2s1 [Example 1, 6-(Benzofuran-2-yl)-2-(methylthio)imidazo[2,1-b][1,3,4]thiadiazole]
IC50: 14 nM

CSc1nn2cc(-c3cc4c(OCc5ccc(F)cc5)cccc4o3)nc2s1 [Example 249]
IC50: 19.4 nM

CSc1nn2cc(-c3cc4c(Br)cccc4o3)nc2s1 [Example 258]
IC50: 3.32 nM

CCOc1cccc2oc(-c3cn4nc(SC)sc4n3)nc12 [Example 158]
IC50: 69.3 nM

COc1nn2cc(-c3nc4c(Cl)cccc4s3)nc2s1 [Example 196]
IC50: 791 nM

COCOc1cccc2oc(-c3cn4nc(OC)sc4n3)cc12 [Example 217, 2-Methoxy-6-(4-(methoxymethoxy)benzofuran-2-yl)imidazo[2,1-b][1,3,4]thiadiazole]
IC50: 7.51 nM

COc1cc(OCc2cccc(OCc3ccccc3)c2)c2cc(-c3cn4nc(SC)sc4n3)oc2c1 [Example 345]
IC50: 0.97 nM

CCc1nn2cc(-c3nc4ccc(OCc5ccccc5Cl)cc4o3)nc2s1 [Example 81]
IC50: 507 nM

COc1cc(OC)c2nc(-c3cn4nc(SC)sc4n3)oc2c1 [Example 177]
IC50: 3.78 nM

COc1nn2cc(-c3cc4c(OCc5cccc(OCc6ccccc6)c5)cc(NC(C)=O)cc4o3)nc2s1 [Example 412, N-(4-((3-(Benzyloxy)benzyl)oxy)-2-(2-methoxyimidazo[2,1-b][1,3,4]thiadiazol-6-yl)benzofuran-6-yl)acetamide]
IC50: 72.5 nM

COc1ccc2cc(-c3cn4nc(C(C)F)sc4n3)oc2c1 (centres unmarked) [Example 293]
IC50: 4.83 nM

COc1cc(OCc2ccccc2)c2nc(-c3cn4nc(SC)sc4n3)oc2c1 [Example 119, 4-(Benzyloxy)-6-methoxy-2-(2-(methylthio)imidazo[2,1-b][1,3,4]thiadiazol-6-yl)benzo[d]oxazole]
IC50: 10.6 nM

CC(F)(F)c1nn2cc(-c3cc4ccc(OCc5ccccc5)cc4o3)nc2s1 [Example 241]
IC50: 290 nM

FC(F)C(F)(F)c1nn2cc(-c3cc4ccccc4o3)nc2s1 [Example 208, 6-(Benzofuran-2-yl)-2-(1,1,2,2-tetrafluoroethyl)imidazo[2,1-b][1,3,4]thiadiazole]
IC50: 457 nM

COc1cc(OC[C@H]2CCCN2C(=O)c2ccc(F)cc2)c2cc(-c3cn4nc(OC)sc4n3)oc2c1 [Example 341]
IC50: 22 nM

COc1nn2cc(-c3cc4c(Cl)cccc4o3)nc2s1 [Example 109]
IC50: 3.1 nM

COc1nn2cc(-c3nc4cc(F)ccc4s3)nc2s1 [Example 194]
IC50: 9.64 nM

COc1nn2cc(-c3cc4ccc(OCc5ccccc5)cc4o3)nc2s1 [Example 104]
IC50: 26.2 nM

Cc1cc2oc(-c3cn4nc(Br)sc4n3)cc2cc1Cl [Example 277]
IC50: 512 nM

COc1nn2cc(-c3cc4cccc(F)c4o3)nc2s1 [Example 263]
IC50: 20.7 nM

COc1cc(OCc2cccc(OCc3ccc(Cl)cc3F)c2)c2cc(-c3cn4nc(OC)sc4n3)oc2c1 [Example 323]
IC50: 1.48 nM

CSc1nn2cc(-c3nc4ccccc4s3)nc2s1 [Example 4, 2-(2-(Methylthio)imidazo[2,1-b][1,3,4]thiadiazol-6-yl)benzo[d]thiazole]
IC50: 12.9 nM

CC(F)(F)c1nn2cc(-c3cc4cc(Cl)ccc4o3)nc2s1 [Example 236]
IC50: 159 nM

CC(F)c1nn2cc(-c3cc4ccccc4o3)nc2s1 (centres unmarked) [Example 247]
IC50: 47.9 nM

COc1cc(Cl)cc(COc2cccc(COc3cc(OC)cc4oc(-c5cn6nc(OC)sc6n5)cc34)c2)c1 [Example 401]
IC50: 1.28 nM

CSc1nn2cc(-c3nc4cc(C)c(C)cc4o3)nc2s1 [Example 133]
IC50: 19.7 nM

Fc1ccc2sc(-c3cn4nc(Br)sc4n3)nc2c1 [Example 193]
IC50: 1040 nM

Cc1ccc2oc(-c3cn4nc(C(C)(F)F)sc4n3)cc2c1 [Example 232]
IC50: 152 nM

CC(F)(F)c1nn2cc(-c3cc4ccc(Cl)cc4o3)nc2s1 [Example 237]
IC50: 28.8 nM

COc1nn2cc(-c3nc4ccc(C)cc4s3)nc2s1 [Example 197]
IC50: 1050 nM

CSc1nn2cc(-c3cc4c(O)cccc4o3)nc2s1 [Example 214, 2-(2-(Methylthio)imidazo[2,1-b][1,3,4]thiadiazol-6-yl)benzofuran-4-ol]
IC50: 322 nM

CSc1nn2cc(-c3nc4ccc(F)cc4s3)nc2s1 [Example 191]
IC50: 30.7 nM

COc1cc(OCc2cccc(OCc3cc(C)cc(C)c3)c2)c2cc(-c3cn4nc(OC)sc4n3)oc2c1 [Example 382]
IC50: 1.67 nM

COc1cc(OC)c2cc(-c3cn4nc(Br)sc4n3)oc2c1 [Example 294]
IC50: 19.5 nM

CCOC(=O)CCCCCOc1cccc2cc(-c3cn4nc(CC)sc4n3)oc12 [Example 65]
IC50: 1470 nM

COc1cccc2sc(-c3cn4nc(SC)sc4n3)nc12 [Example 6, 4-Methoxy-2-(2-(methylthio)imidazo[2,1-b][1,3,4]thiadiazol-6-yl)benzo[d]thiazole]
IC50: 618 nM

COc1ccc2cc(-c3cn4nc(Br)sc4n3)oc2c1 [Example 260]
IC50: 4.45 nM

COc1nn2cc(-c3cc4cccc(C(C)C)c4o3)nc2s1 [Example 101]
IC50: 10.7 nM

CSc1nn2cc(-c3nc4c(OCc5ccncc5)cccc4o3)nc2s1 [Example 167]
IC50: 785 nM

CCCCOc1ccc2nc(-c3cn4nc(CC)sc4n3)oc2c1 [Example 79]
IC50: 801 nM

CC(F)(F)c1nn2cc(-c3cc4c(OCc5ccccc5)cccc4o3)nc2s1 [Example 250]
IC50: 267 nM

CC(F)c1nn2cc(-c3nc4ccccc4s3)nc2s1 (centres unmarked) [Example 186, 2-(2-(1-Fluoroethyl)imidazo[2,1-b][1,3,4]thiadiazol-6-yl)benzo[d]thiazole]
IC50: 252 nM

CSc1nn2cc(-c3nc4c(OCc5ccc(Cl)cc5)cccc4o3)nc2s1 [Example 157]
IC50: 1650 nM

CCc1nn2cc(-c3nc4ccc(OCc5ccc(Cl)cc5)cc4o3)nc2s1 [Example 83]
IC50: 1010 nM

COc1cc(OCc2cccc(OCc3ccc(OC)c(OC)c3)c2)c2cc(-c3cn4nc(OC)sc4n3)oc2c1 [Example 389]
IC50: 0.73 nM

Cc1ccc2cc(-c3cn4nc(C(F)(F)Cl)sc4n3)oc2c1 [Example 244]
IC50: 383 nM

CSc1nn2cc(-c3nc4ccc(OCCF)cc4o3)nc2s1 [Example 118, 6-(2-Fluoroethoxy)-2-(2-(methylthio)imidazo[2,1-b][1,3,4]thiadiazol-6-yl)benzo[d]oxazole]
IC50: 191 nM

Clc1cc(Cl)c2cc(-c3cn4nc(Br)sc4n3)oc2c1 [Example 288]
IC50: 94.1 nM

CCc1nn2cc(-c3nc4ccc(OCCCc5ccccc5)cc4o3)nc2s1 [Example 78]
IC50: 576 nM

COCCOc1cccc2oc(-c3cn4nc(OC)sc4n3)cc12 [Example 256]
IC50: 48.4 nM

COc1nn2cc(-c3cc4ccc(F)cc4o3)nc2s1 [Example 96]
IC50: 7.92 nM

CSc1nn2cc(-c3nc4ccc(OCc5cc(F)cc(F)c5)cc4o3)nc2s1 [Example 152]
IC50: 340 nM

CSc1nn2cc(-c3nc4ccc(OCc5ccc(Cl)cc5)cc4o3)nc2s1 [Example 169]
IC50: 70.5 nM

CSc1nn2cc(-c3cc4c(OCc5cccc(OCc6ccccc6)c5)cc(OC(F)F)cc4o3)nc2s1 [Example 424]
IC50: 21.4 nM

COc1cc(OCc2cccc(OCc3ccccc3Br)c2)c2cc(-c3cn4nc(OC)sc4n3)oc2c1 [Example 360]
IC50: 2.47 nM

CCOc1cc(OCc2cccc(OCc3ccccc3)c2)c2cc(-c3cn4nc(SC)sc4n3)oc2c1 [Example 423]
IC50: 15.1 nM

CSc1nn2cc(-c3nc4cc(F)ccc4o3)nc2s1 [Example 126]
IC50: 10.4 nM

COc1nn2cc(-c3cc4c(O)c(Cc5ccccc5)c(OC)cc4o3)nc2s1 [Example 224, 5-Benzyl-6-methoxy-2-(2-methoxyimidazo[2,1-b][1,3,4]thiadiazol-6-yl)benzofuran-4-ol]
IC50: 97.1 nM

COc1nn2cc(-c3cc4c(OC)ccc(OC)c4o3)nc2s1 [Example 103]
IC50: 10.7 nM
